Results from patent EP4772498A1, “COMPOUND ACTING AS ANDROGEN RECEPTOR ANTAGONIST” (China Pharmaceutical University, priority 2023, dated 2025).
Marks after values point to notes of the source that are not given here. Blank lines part the entries; values can stand above or below the molecule they belong to.

Tests used:
[1] = Metabolic stability assay in liver microsomes; assay type: in vitro ADME; details: human liver microsomes, pH 7.4, human liver microsome 0.5 mg/mL, 1 mM NADPH, compound 1 µM, 37 °C; for microsomal CLint at 1 µM: read-out: In vitro Clint; for half-life at 1 µM: read-out: In vitro T1/2
Protocol: The metabolic stability of compounds disclosed herein in liver microsomes was determined using the following method.
• 1. Liver microsome source: Human liver microsome (Corning, 452117) • 2. Na2HPO4 (Tianjin Guangfu Fine Chemical Research Institute, 20180130) • 3. KH2PO4 (Tianjin Guangfu Fine Chemical Research Institute, 20180920) • 4. MgCl2 (Tianjin Guangfu Fine Chemical Research Institute, 20191216) • 5. NADPH (Solarbio, 1216C022) • 6. Positive control compound verapamil (Sigma, MKBV4993V) • 7. AB Sciex Triple Quad 4000 liquid chromatography-mass spectrometry system
1. Preparation of 100 mM phosphate-buffered saline (PBS): 7.098 g Na2HPO4 was dissolved in 500 mL of purified water by sonication to give solution A. 3.400 g of KH2PO4 was dissolved in 250 mL of purified water by sonication to give solution B. Solution A was placed on a stirrer, and solution B was added slowly until the pH reached 7.4, so as to give a 100 mM PBS buffer. 2. Preparation of reaction system The reaction system was prepared according to the table below.
3. The reaction system was pre-incubated in a 37 °C water bath for 10 min. 40 µL of 10 mM NADPH solution (NADPH was dissolved in 100 mM phosphate-buffered saline) was added to the reaction system, with the final concentration of NADPH being 1 mM. A negative control was prepared by replacing the NADPH solution with 40 µL of phosphate-buffered saline. The negative control was used to exclude the effect of the chemical stability of the compound itself. 4. The reaction was initiated by adding 4 µL of 100 µM compound disclosed herein or positive control compound verapamil to the reaction system at a final concentration of 1 µM. 5. After 0.5 min, 15 min, 30 min, 45 min, and 60 min of mixing well by using a vortex oscillator, 50 µ L of the incubated sample was taken out, and glacial acetonitrile containing an internal standard of 4 folds was added to terminate the reaction. The sample was centrifuged at 3,220 g for 45 min. 90 µL of the supernatant was transferred to a feeding plate after the centrifugation was completed, and 90 µL ultrapure water was added. The mixture was well mixed for LC-MS/MS analysis.
All data were calculated by using Microsoft Excel software. The peak areas were determined by using an extracted ion chromatogram. The in vitro half-life (T1/2) of the test compound was determined by linear fitting of the natural logarithm of the elimination proportion of the test compound over time. In vitro half-life (T1/2) was calculated by the slope k: in vitro T1/2 = 0.693/k [formula]
The in vitro intrinsic clearance (in vitro CLint, unit: µL/min/mg protein) was calculated using the following formula: in vitro CLint = k × volume of incubation solution/enzyme protein content; [formula]

AR = AR antagonistic activity: AR / PSA ARE1 luciferase reporter gene assay in transfected LNCaP cells stimulated with 1 nM DHT; assay type: cell-based; details: 24 h, normalised to 0.1% DMSO and 30 µM enzalutamide
Protocol: LNCaP cells were plated in a 6-well plate (Corning, 3516) at 8 × 10^5 cells/well.
AR and PSA ARE1 reporter gene plasmids (Bio (Anhui) Co., Ltd.) and transfection reagents Lipo3000 and P3000 (Lipofectamine™ 3000) (a total of 2.5 µg of plasmids, i.e., 1.25 µg of each plasmid, were added to each well) were left to stand and incubated for 10 min, and then 250 µL of the above transfection reagents were added dropwise to each well containing cells and co-incubated with the cells for 24 h.
The cells were washed with PBS, and the medium was replaced with a phenol red-free RPMI-1640 medium containing 5% carbon adsorption serum (or 10% fetal bovine serum and 1% penicillin and streptomycin). The cells were re-plated onto a 96-well plate (Corning, 3603) according to the number of cells plated (2 × 10^4 cells/well).
After cell plating, the test compound (or DMSO or positive control) was added. After at least 30 min of incubation, DHT (dihydrotestosterone) was added to the culture system at a final concentration of 1 nM. The culture system was then incubated in a carbon dioxide incubator.
Test compound: 10 mM stock solution, with a final concentration of 3.3 µM or 6.7 µM. Negative control: 0.1% DMSO. Positive control: 30 µM enzalutamide.
After the test compound (or DMSO or positive control) and DHT were co-incubated for 24 h, the luciferase signal was detected using the Vazyme Bright-Lite substrate. The medium was added at 70 µL/well, and the plate was shaken for 2 min, followed by reading of the luciferase signal.
Assay robustness was confirmed using the DMSO and low concentration control data: Ave_H = Ave(DMSO) [formula] Ave_L = Ave (30μMenzalutamide) [formula] Inhibition rate (%) = (Ave_H−Sample)/(Ave_H−Ave_L) × 100% [formula] Ave_H: the measurement of the negative control (0.1% DMSO); Ave_L: the measurement of the positive control (30 µM enzalutamide); Sample: the measurement of the test compound; The corresponding activity test results for the test compounds were specified in Table 1. Table 1. Corresponding activity test results for compounds disclosed herein

C57BL/6 mice = experiment: In vivo pharmacodynamic study 1: hair growth scoring in shaved telogen-phase mice, topical treatment; details: for Score (mean±SD): hair growth score 0-5, topical twice daily, compound 001 2 wt%, compound 008 0.5 wt%
Description: Vehicle: propylene glycol/ethanol (30:70, v/v)
Animal information: C57BL/6 mice (male, aged 4-6 weeks, about 18-20 g), purchased from Shanghai Lingchang Biotechnology Co., Ltd. The mice were bred in an SPF-level environment within independently ventilated cages.
Skin preparation: After 1-2 weeks of acclimation, the hairs in a 2 cm × 3 cm area of the back of the mice were shaved to confirm that the hairs of the mice were in the telogen phase (the skin was pink) and the skin was not damaged.
Treatment: On day 3 after shaving, the mice were grouped for treatment. […] The control group received the control solvent. 12 mice were in each group.
The mice were weighed on days 10, 13, 18, 21, 25, and 30, and the hair growth state was scored and photographed.
The scoring criteria are as follows: • 0: no growth, with pink skin in the shaved area; • 1: the skin in the shaved area was gray (an increase of less than 20%); • 2: the skin in the shaved area was black (more than 20% but less than 40%); • 3: the skin in the shaved area was black with a little hair growth (more than 40% but less than 60%); • 4: the skin in the shaved area was black with partial hair growth (more than 60% but less than 80%); • 5: basically complete hair growth (80%-100% growth) in the shaved area.

Whole blood stability = details: human
Protocol: 1 mM stock solutions of the test compounds were prepared in DMSO, and a 1 mM stock solution of the reference compound propantheline was prepared in acetonitrile.
4 µL of test compound (or reference compound) stock solution was added to 796 µL of pre-incubated human blood (whole blood) at a final concentration of 5 µM. The final concentration of the solvent was 0.5%. At different time points (including 5 min, 15 min, 30 min, 60 min, and 120 min), a 50 µL aliquot of the whole blood containing the sample was added to a new tube and incubated in a 37 °C water bath with shaking at 60 rpm. The treatment was performed in duplicate. At designated time points, 300 µL of room-temperature quenching solution (a solution of acetonitrile containing internal standards (100 nM alprazolam, 500 nM labetalol, and 2 µM ketoprofen)) was added to the whole blood sample containing the sample to terminate the reaction. 50 µL of whole blood containing the sample was added to a new tube containing 300 µL of room-temperature quenching solution to prepare a sample at 0 min. All samples were vortexed for 5 min. The samples in the plate were centrifuged at 3220 g for 30 min at 4 °C to precipitate the proteins. 100 µL of the supernatant was transferred to a new 96-well plate containing 100 µL of water for LC-MS/MS analysis.
The peak area ratio was determined by using an extracted ion chromatogram. The proportion of remaining compound at each time point was calculated according to the following formula: Remaning proporion t min (%) = peak area ratio t min / peak area ratio 0 min × 100% [formula] • Peak area ratio t min: peak area ratio of reference compound to test compound at t min; • Peak area ratio 0 min: peak area ratio of reference compound to test compound at time zero.
The slope value was determined by linear regression on the curve of the natural logarithm of the remaining proportion of the test compound versus the incubation time.
Determination of in vitro half-life (in vitro t1/2) from the slope value: in vitro t1/2 = 0.693/k [formula] in the formula, k is the rate constant (k = -slope value)

[2] = treatment concentration: 3.3 µM
[3] = at the investigated doses (001 2%, 008 0.5%, BID topical)
[4] = treatment concentration: 6.7 µM

microsomal CLint at 1 µM [1]: 32.5 µL/min/mg | half-life at 1 µM [1]: 42.6 min
Structure (SMILES): CCOC(=O)[C@@](C)(O)C(=O)Nc1cnc(C#N)c(C(F)(F)F)c1 [Compound 002, Ethyl (2S)-3-[[6-cyano-5-(trifluoromethyl)pyridin-3-yl]amino]-2-hydroxy-2-methyl-3-oxopropanoate]
AR antagonism (inhibition rate, %) (AR; [2]): 89.16^a %

microsomal CLint at 1 µM [1]: 60.4 µL/min/mg | half-life at 1 µM [1]: 22.9 min
Structure (SMILES): CCOC(=O)[C@](C)(O)C(=O)Nc1cnc(C#N)c(C(F)(F)F)c1 [Compound 003, ethyl (2R)-3-[[6-cyano-5-(trifluoromethyl)pyridin-3-yl]amino]-2-hydroxy-2-methyl-3-oxopropanoate]
AR antagonism (inhibition rate, %) (AR; [2]): 75.26^a %

Structure (SMILES): CCCOC(=O)[C@@](C)(O)C(=O)Nc1cnc(C#N)c(C(F)(F)F)c1 [Compound 004, Propyl (2S)-3-[[6-cyano-5-(trifluoromethyl)-pyridin-3-yl]amino]-2-hydroxy-2-methyl-3-oxopropanoate]
AR antagonism (inhibition rate, %) (AR; [2]): 87.30^a %

Structure (SMILES): CCCOC(=O)[C@](C)(O)C(=O)Nc1cnc(C#N)c(C(F)(F)F)c1 [Compound 005, propyl (2R)-3-[[6-cyano-5-(trifluoromethyl)-pyridin-3-yl]amino]-2-hydroxy-2-methyl-3-oxopropanoate]
AR antagonism (inhibition rate, %) (AR; [2]): 58.52^a %

Structure (SMILES): CCCCOC(=O)[C@@](C)(O)C(=O)Nc1cnc(C#N)c(C(F)(F)F)c1 [Compound 006, butyl (2S)-3-[[6-cyano-5-(trifluoromethyl)pyridin-3-yl]amino]-2-hydroxy-2-methyl-3-oxopropanoate]
AR antagonism (inhibition rate, %) (AR; [2]): 93.92^a %

microsomal CLint at 1 µM [1]: 35.5 µL/min/mg | half-life at 1 µM [1]: 39.1 min | signs of erythema, dehiscence, desquamation, and the like on the skin (C57BL/6 mice; [3]): no signs
Structure (SMILES): CCOC(=O)C(O)(C(=O)Nc1cnc(C#N)c(C(F)(F)F)c1)C(F)(F)F (stereo not drawn) [Compound 008, Ethyl 2-[[6-cyano-5-(trifluoromethyl)-pyridin-3-yl]carbamoyl]-3,3,3-trifluoro-2-hydroxypropanoate]
AR antagonism (inhibition rate, %) (AR; [2]): 86.95^a % | Score (mean±SD) (C57BL/6 mice; Day 0): 0 | Score (mean±SD) (C57BL/6 mice; Day 10): 0.4±0.5 | Score (mean±SD) (C57BL/6 mice; Day 13): 0.6±0.5 | Score (mean±SD) (C57BL/6 mice; Day 18): 1.0±0.6 | Score (mean±SD) (C57BL/6 mice; Day 21): 1.1±0.7 | Score (mean±SD) (C57BL/6 mice; Day 25): 1.9±1.5 | Score (mean±SD) (C57BL/6 mice; Day 30): 2.8±2.1 | impact on the body weight of the mice (C57BL/6 mice; [3]): no significant impact | effect on mouse hair growth (C57BL/6 mice; compound 001 at 2%, compound 008 at 0.5%, BID topically at 20 µL/cm^2): significant promoting effect | day of the treatment from which hair growth was significantly promoted (C57BL/6 mice; vs. vehicle control, 001 P < 0.01, 008 P < 0.05): ≥ 13 days

Structure (SMILES): CCCOC(=O)C(O)(C(=O)Nc1cnc(C#N)c(C(F)(F)F)c1)C(F)(F)F (stereo not drawn) [Compound 010, Propyl 2-[[6-cyano-5-(trifluoromethyl)-pyridin-3-yl]carbamoyl]-3,3,3-trifluoro-2-hydroxypropanoate]
AR antagonism (inhibition rate, %) (AR; [2]): 82.14^a %

Structure (SMILES): CCCCOC(=O)C(O)(C(=O)Nc1cnc(C#N)c(C(F)(F)F)c1)C(F)(F)F (stereo not drawn) [Compound 011, Butyl 2-[[6-cyano-5-(trifluoromethyl)-pyridin-3-yl]carbamoyl]-3,3,3-trifluoro-2-hydroxypropanoate]
AR antagonism (inhibition rate, %) (AR; [2]): 88.48^a %

half-life at 5 µM (Whole blood stability): 349 min
Structure (SMILES): CC(C)OC(=O)C(C)(O)C(=O)Nc1cnc(C#N)c(C(F)(F)F)c1 (stereo not drawn) [Compound 013, Isopropyl 3-[[6-cyano-5-(trifluoromethyl)-pyridin-3-yl]amino]-2-hydroxy-2-methyl-3-oxopropanoate]
AR antagonism (inhibition rate, %) (AR; [2]): 90.0^a %

Structure (SMILES): CC(C)(C)OC(=O)C(C)(O)C(=O)Nc1cnc(C#N)c(C(F)(F)F)c1 (stereo not drawn) [Compound 014, tert-Butyl 3-[[6-cyano-5-(trifluoromethyl)-pyridin-3-yl]amino]-2-hydroxy-2-methyl-3-oxopropanoate]
AR antagonism (inhibition rate, %) (AR; [2]): 90.3^a %

Structure (SMILES): CCOC(=O)C(O)(C(=O)Nc1ccc(C#N)c(SC)c1F)C(F)(F)F (stereo not drawn) [Compound 015, Ethyl 2-[(4-cyano-2-fluoro-3-methylsulfanyl-phenyl)carbamoyl]-3,3,3-trifluoro-2-hydroxy-propanoate]
AR antagonism (inhibition rate, %) (AR; [2]): 65.06^a %

Structure (SMILES): CCOC(=O)C(C)(O)C(=O)Nc1cnc(C#N)c(SC)c1 (stereo not drawn) [Compound 016, Ethyl 3-[(6-cyano-5-methylthio-pyridin-3-yl)amino]-2-hydroxy-2-methyl-3-oxopropanoate]
microsomal CLint at 1 µM [1]: 102 µL/min/mg | half-life at 1 µM [1]: 13.6 min

Structure (SMILES): CCCCOC(=O)C(C)(O)C(=O)Nc1ccc(C#N)c(C(F)(F)F)c1 (stereo not drawn) [Compound 022, Butyl 3-[4-cyano-3-(trifluoromethyl)anilino]-2-hydroxy-2-methyl-3-oxo-propanoate]
AR antagonism (inhibition rate, %) (AR; [2]): 81.05^a %

Structure (SMILES): CCCCOC(=O)C(C)(O)C(=O)Nc1ccc(Cl)c(C(F)(F)F)c1 (stereo not drawn) [Compound 023, Butyl 3-[4-chloro-3-(trifluoromethyl)anilino]-2-hydroxy-2-methyl-3-oxo-propanoate]
AR antagonism (inhibition rate, %) (AR; [2]): 52.26^a %

Structure (SMILES): CCOC(=O)c1cccc(NC(=O)C(C)(O)C(=O)Nc2cnc(C#N)c(C(F)(F)F)c2)n1 (stereo not drawn) [Compound 032, Ethyl 6-(3-((6-cyano-5-(trifluoromethyl)pyridin-3-yl)amino)-2-hydroxy-2-methyl-3-oxopropanamido)picolinate]
AR antagonism (inhibition rate, %) (AR; [2]): 47.7^a %

Structure (SMILES): COc1cc(NC(=O)C(C)(O)C(=O)OC(C)(C)C)cnc1C#N (stereo not drawn) [Compound 048, tert-Butyl 3-[(6-cyano-5-methoxypyridin-3-yl)amino]-2-hydroxy-2-methyl-3-oxo-propanoate]
AR antagonism (inhibition rate, %) (AR; [4]): 62.18^b %

Structure (SMILES): CSc1cc(NC(=O)C(C)(O)C(=O)OC(C)(C)C)cnc1C#N (stereo not drawn) [Compound 049, tert-Butyl 3-[(6-cyano-5-methylthiopyridin-3-yl)amino]-2-hydroxy-2-methyl-3-oxo-propanoate]
AR antagonism (inhibition rate, %) (AR; [4]): 90.02^b %
